The test system of data set [1] is L. infantum (MHOM/MA/67/ITMAP-263) intracellular amastigotes. Put plainly: Anti-parasitic activity against L. infantum intracellular amastigotes (infection with axenic amastigotes luciferase positive). The note with it: Table 1; for inhibition at 10 µM: read-out: Single Dose Assay 10 μM Mean Inhibitory Activity (%) ± SD. Format: cell-based.
Data set [2] concerns W1-38. Kind of data set: Early toxicity: W1-38 cell growth. The note with it: 10 μM. The class given is cell-based.
Data set [3] concerns T. b. brucei L427 WT Blood-Stream Form. Kind of data set: Anti-parasitic activity against T. b. brucei blood-stream form (resazurin 72 h assay). The note with it: Table 2; for inhibition at 10 µM: read-out: Single Dose Assay 10 μM Mean Inhibitory Activity (%) ± SD. The class given is cell-based.
In data set [4] the target is hERG channel (Homo sapiens, UniProt Q12809). Kind of data set: Early toxicity: hERG inhibition. As to conditions: for Flag for Interference, hERG: Table 4b; for inhibition at 10 µM: human. In general terms: Block of hERG is tested as a sign of cardiac risk.
Sequence of hERG channel (Q12809 whole entry): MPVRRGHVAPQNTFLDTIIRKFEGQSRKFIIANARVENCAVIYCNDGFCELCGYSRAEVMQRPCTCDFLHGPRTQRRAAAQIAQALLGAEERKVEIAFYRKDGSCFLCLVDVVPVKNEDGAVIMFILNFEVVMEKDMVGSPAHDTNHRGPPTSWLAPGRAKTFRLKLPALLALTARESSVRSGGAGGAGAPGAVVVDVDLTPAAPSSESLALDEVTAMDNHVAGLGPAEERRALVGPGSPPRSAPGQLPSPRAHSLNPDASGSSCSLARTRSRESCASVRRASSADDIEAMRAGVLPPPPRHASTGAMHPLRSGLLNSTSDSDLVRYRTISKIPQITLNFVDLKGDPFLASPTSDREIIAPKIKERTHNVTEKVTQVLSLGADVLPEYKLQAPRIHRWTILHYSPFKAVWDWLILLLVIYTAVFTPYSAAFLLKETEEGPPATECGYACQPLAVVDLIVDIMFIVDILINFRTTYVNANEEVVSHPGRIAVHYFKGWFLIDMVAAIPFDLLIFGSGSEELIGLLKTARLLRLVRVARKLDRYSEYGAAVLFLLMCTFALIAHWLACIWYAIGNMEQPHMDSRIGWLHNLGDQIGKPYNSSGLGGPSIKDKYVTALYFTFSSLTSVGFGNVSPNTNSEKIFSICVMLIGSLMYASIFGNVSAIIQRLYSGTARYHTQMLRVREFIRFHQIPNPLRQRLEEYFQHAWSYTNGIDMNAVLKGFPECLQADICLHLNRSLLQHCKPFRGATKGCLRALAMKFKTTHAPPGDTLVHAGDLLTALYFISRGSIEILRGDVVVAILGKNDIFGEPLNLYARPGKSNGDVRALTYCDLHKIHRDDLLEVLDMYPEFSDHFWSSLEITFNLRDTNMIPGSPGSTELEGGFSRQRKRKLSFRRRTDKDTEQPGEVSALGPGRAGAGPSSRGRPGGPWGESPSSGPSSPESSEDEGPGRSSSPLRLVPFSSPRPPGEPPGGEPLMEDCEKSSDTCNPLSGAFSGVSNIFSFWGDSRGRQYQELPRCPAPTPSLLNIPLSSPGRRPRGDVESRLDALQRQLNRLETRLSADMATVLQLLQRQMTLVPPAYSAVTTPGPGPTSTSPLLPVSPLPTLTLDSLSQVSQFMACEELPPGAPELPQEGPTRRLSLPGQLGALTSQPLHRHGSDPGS
In data set [5] the test system is mitochondria. Kind of data set: Early toxicity: mitochondrial toxicity. Format: cell-based. The note with it: for % mitochondrial toxicity: 10 μM, 100% mitotoxic, 0% not mitotoxic.
For data set [6], the system named is PMA-differentiated THP-1 cells. Put plainly: Toxicity MTT assay in PMA-differentiated THP-1 cells. The note with it: Table 2; read-out: Toxicity CC50 ± SD or NOAEL. Format: cell-based, human. The source says: (§1) The in vitro antiparasitic activity against L. infantum (MHOM/MA/67/ITMAP-263) and the toxicity against THP-1 macrophages is presented in Table 1.
A general note: Formazan colour is commonly taken as a measure of viable cells.

Assay in data set [7]: as above
The class given is cell-based, human. The note with it: human, PMA-differentiated THP-1 cells (macrophages); for CC50: THP-1 macrophages, Table 1, read-out: Toxicity CC50 ± SD or NOAEL; for IC50: Table 4b, read-out: Cytotoxicity THP-1 (IC50).
Source text: as §1

Data set [8] has as its target CYP3A4 (Homo sapiens, UniProt P08684). Kind of data set: Early toxicity: CYP3A4 inhibition. The note with it: Table 4a; for inhibition at 10 µM: human, mean ± SD, read-out: % inhibition CYP3A4. Format: in vitro ADME.
The target of data set [9] is CYP2D6 (Homo sapiens, UniProt P10635). Put plainly: Early toxicity: CYP2D6 inhibition. The class given is in vitro ADME. As to conditions: Table 4a; for inhibition at 10 µM: human, mean ± SD.
Sequence of CYP2D6 (P10635 whole entry): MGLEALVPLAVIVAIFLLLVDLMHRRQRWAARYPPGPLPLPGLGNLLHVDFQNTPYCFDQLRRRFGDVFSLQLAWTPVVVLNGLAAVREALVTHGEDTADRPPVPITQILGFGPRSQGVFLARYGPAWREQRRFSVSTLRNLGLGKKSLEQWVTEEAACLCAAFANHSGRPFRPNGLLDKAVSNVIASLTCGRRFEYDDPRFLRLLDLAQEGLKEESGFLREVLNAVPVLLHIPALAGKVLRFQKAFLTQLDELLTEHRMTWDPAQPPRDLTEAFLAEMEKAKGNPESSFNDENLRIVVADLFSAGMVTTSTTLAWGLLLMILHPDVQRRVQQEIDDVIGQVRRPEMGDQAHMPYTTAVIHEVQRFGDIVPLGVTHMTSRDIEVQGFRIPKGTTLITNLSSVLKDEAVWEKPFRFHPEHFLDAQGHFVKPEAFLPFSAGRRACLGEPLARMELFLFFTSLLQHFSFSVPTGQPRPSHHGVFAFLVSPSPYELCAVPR
Data set [10] deals with CYP2C9 (Homo sapiens, UniProt P11712). Put plainly: Early toxicity: CYP2C9 inhibition. The note with it: human, mean ± SD, Table 4a. Format: in vitro ADME.
Sequence of CYP2C9 (P11712 whole entry): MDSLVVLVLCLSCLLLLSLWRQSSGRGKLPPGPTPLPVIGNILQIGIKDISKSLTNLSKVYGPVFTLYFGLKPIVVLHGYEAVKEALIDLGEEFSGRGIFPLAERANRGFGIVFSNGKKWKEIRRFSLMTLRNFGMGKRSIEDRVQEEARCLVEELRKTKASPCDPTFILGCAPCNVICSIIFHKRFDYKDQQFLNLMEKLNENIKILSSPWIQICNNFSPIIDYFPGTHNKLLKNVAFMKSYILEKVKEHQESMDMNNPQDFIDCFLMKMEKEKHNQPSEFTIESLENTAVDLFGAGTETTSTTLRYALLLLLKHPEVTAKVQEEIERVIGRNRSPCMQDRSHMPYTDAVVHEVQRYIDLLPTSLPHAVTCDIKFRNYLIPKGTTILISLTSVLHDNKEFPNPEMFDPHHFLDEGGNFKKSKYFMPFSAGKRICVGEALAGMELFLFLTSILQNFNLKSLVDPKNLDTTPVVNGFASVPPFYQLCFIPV
The target in data set [11] is T1, CYP1A2 (Homo sapiens, UniProt P05177).
T1 sequence (P05177 1-516): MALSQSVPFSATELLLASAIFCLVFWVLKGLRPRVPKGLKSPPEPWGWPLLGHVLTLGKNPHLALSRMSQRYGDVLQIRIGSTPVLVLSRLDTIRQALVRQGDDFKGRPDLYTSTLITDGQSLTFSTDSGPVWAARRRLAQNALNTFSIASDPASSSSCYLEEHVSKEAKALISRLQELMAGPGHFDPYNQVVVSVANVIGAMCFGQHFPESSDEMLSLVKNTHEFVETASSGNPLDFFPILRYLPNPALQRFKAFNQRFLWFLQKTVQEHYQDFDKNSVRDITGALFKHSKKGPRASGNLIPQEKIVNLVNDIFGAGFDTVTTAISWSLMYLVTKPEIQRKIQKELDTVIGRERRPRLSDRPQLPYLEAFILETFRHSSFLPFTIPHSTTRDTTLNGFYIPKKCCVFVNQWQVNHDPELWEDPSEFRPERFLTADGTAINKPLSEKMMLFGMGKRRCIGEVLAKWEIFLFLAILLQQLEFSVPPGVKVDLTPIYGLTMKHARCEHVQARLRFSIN
Kind of data set: Early toxicity: CYP1A2 inhibition. Format: in vitro ADME. The note with it: human, mean ± SD, Table 4a.

The test system of data set [12] is A549. Kind of data set: Early toxicity: A549 cell growth. The class given is cell-based. As to conditions: 10 μM; 100% = not cytotoxic, 0% = cytostatic, −100% = cytotoxic.
Data set [13] deals with CYP2C19 (Homo sapiens, UniProt P33261). Kind of data set: Early toxicity: CYP2C19 inhibition. Format: in vitro ADME. The note with it: Table 4a; for inhibition at 10 µM: human, mean ± SD.
Sequence of CYP2C19 (P33261 whole entry): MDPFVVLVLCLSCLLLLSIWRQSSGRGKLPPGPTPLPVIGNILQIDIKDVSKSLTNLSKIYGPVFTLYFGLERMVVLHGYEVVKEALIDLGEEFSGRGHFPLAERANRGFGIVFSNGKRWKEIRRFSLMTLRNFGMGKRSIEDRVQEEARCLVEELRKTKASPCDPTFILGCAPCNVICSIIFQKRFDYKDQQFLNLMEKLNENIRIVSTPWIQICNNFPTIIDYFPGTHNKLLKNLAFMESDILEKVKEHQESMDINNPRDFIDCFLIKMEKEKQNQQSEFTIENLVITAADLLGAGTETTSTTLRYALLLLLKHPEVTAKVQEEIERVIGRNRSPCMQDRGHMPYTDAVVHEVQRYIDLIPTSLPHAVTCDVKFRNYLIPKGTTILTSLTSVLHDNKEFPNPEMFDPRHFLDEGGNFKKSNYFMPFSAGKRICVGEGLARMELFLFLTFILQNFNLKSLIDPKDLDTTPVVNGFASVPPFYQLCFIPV
The nature of data set [14]: Snapshot pharmacokinetics in plasma after oral gavage. The note with it: mouse, plasma, po, healthy BALB/c mice, 20 mg/kg gavage, Table 13. The class given is in vivo, mice. The procedure: Pharmacology of 5-cyclopentadecylpentyl (2-(trimethylammonio)ethyl) phosphate (19) in mice.
Blood samples were collected from the tail vein at 0, 0.5, 0.75, 1, 3, 24 and 72 hours into heparinized tubes. Moreover, biodistribution of the molecule, 72h after administration, was determined in several organs of the treated mice, namely brain, liver, spleen, kidney, heart and bone marrow. […] J Chromatogr B, 865: 55-62) by liquid chromatography mass spectrometry (LC-MS/MS).

Data set [15] concerns L. infantum axenic amastigotes expressing luciferase. Kind of data set: In vivo model of infection with L. infantum axenic amastigotes expressing luciferase. The note with it: ten consecutive oral treatments with 10 mg/kg, 2 weeks after last treatment. The procedure:
FIG. 4 illustrates the in vivo activity of compounds 18 and 19 in a model of infection with L. infantum axenic amastigotes expressing luciferase (10 consecutive treatments with 10 mg/kg of each compound, evaluated by limiting dilution assay 2 weeks after the last treatment).
In vivo activity of compounds 18 and 19 (ten consecutive oral treatments with 10 mg/kg of each compound, followed by a break of 2 weeks after last treatment), was studied in a model of infection with axenic amastigotes expressing luciferase, essentially as described in (Mendes Costa D. et al, J. Sci Rep. 2019 Dec. 12; 9(1):18989; Tavares J. et al., Methods Mol Biol. 2019; 1971:289-301). (FIG. 4).

Entries after “also recorded” stand apart in the source; their conditions may differ. Like-named read-outs stand apart in the source and are kept apart here.

Sequence of CYP3A4 (P08684 whole entry): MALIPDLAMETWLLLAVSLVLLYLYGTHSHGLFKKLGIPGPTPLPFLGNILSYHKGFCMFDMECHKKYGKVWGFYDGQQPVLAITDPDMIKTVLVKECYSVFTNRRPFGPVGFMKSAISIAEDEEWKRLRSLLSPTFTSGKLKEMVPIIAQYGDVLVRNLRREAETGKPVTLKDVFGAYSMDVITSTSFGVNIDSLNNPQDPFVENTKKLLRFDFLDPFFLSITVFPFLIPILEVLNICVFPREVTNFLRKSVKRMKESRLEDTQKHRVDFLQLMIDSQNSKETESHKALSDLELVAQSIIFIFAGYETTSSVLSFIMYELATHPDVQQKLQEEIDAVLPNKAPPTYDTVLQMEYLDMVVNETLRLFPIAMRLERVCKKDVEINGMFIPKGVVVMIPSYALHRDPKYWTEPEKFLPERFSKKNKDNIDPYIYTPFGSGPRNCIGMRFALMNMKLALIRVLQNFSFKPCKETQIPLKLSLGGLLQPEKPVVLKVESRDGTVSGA

As usually defined, the CC50 is the concentration at which the toxic effect on the cells reaches its halfway point. As usually defined, the IC50 is the concentration at which inhibition is half-maximal. For the compound `C[N+](C)(C)CCCOP(=O)([O-])OCCCCC=C1CCCCCCCCCCCCCC1` [Compound 15, 5-cyclopentadecylidenepentyl (3-(trimethylammonio)propyl) phosphate], the inhibition at 10 µM in [1] (Leishmania infantum) is 49 ± 1%; in data set [3] (Trypanosoma brucei) it was 14 ± 5%; in data set [4], 15.5 ± 4.66%; in data set [8] it was 23.4 ± 1.94%; in [9] it was 32.4 ± 2.88%; in data set [10], 15.6 ± 6.17%. The inhibition at 10 µM in data set [11] is 9.44 ± 2.84%; in [13], 42 ± 7.27%. The “% cell growth W1-38” value in data set [2] is listed as 124.02 ± 7.42%. In data set [4], the “Flag for Interference, hERG” value is listed as “(no)”. Also, the “% mitochondrial toxicity” value in [5] stood at 1.08 ± 12.57%. The CC50 in [6] and in data set [7] was more than 100 µM throughout. Moreover, the IC50 in data set [7] is more than 100 µM. Also, the “% cell growth A549” value in [12] worked out at 112.20 ± 6.11%.
As a reminder, the Tmax is the time from dosing to the highest level. `C[N+](C)(C)CCOP(=O)([O-])OCCCCC1CCCCCCCCCCCCCC1` [Compound 18, 4-cyclopentadecylbutyl (2-(trimethylammonio)ethyl) phosphate]: the inhibition at 10 µM is 97 ± 2% in data set [1] (Leishmania infantum); 91 ± 12% in [3] (Trypanosoma brucei); 34.8 ± 14% in data set [4]; 38.1 ± 2.67% in [8]; 64.5 ± 2.92% in data set [9]; 5.66 ± 5.52% in data set [10]. Besides, the values for the inhibition at 10 µM in data set [11] and in [13] were 14 ± 1.17% and 33.3 ± 4.67%, respectively. For the same compound, the IC50 is 0.6 ± 0.3 µM in data set [1] (Leishmania infantum, read-out: Dose Response Curves IC50 ± SD); 7.44 ± 0.65 µM in [3] (Trypanosoma brucei, resazurin 72 h, read-out: Dose Response Curves IC50 ± SD); more than 100 µM in [7]. The results for the “Selectivity Index CC50/IC50 or NOAEL/IC50” value in data set [1] (THP-1 toxicity / L. infantum IC50) and in data set [3] (toxicity / T. b. brucei IC50) were more than 166 and more than 13, respectively. Moreover, the “activity against T. b. brucei blood-stream form” value in [3] was “unexpectedly high activity in the low micromolar range”. The “Flag for Interference, hERG” value in [4] is “(no)”. The “% mitochondrial toxicity” value in data set [5] amounted to 109.49 ± 9.62%. For the same compound, the “mitochondrial toxicity” value in data set [5] (Table 4b) is “exhibit mitochondrial toxicity”. The 50% cytotoxic concentration (CC50) in [6] and in [7] was more than 100 µM throughout. The AUC(0-inf) in data set [14] (read-out: AUC (0-∞)) is 262 µg·h/mL; in [14] (read-out: AUC (0-∞) (μM h/mL)) it was 586 µM·h. In addition, the Cmax in data set [14] (read-out: Cmax) was 20.3 µM; in [14] (read-out: Cmax (μg/mL)), 9.1 µg/mL. Further, the Tmax in data set [14] (read-out: tmax) was 5 h. The half-life in data set [14] (read-out: t½ (converted)) was 16.3 h. Further, the “CYP3A4 interaction” value in data set [8] was “interact”. For the same compound, the “CYP2D6 interaction / inhibition” value in [9] (10 μM) is recorded as “interact; also recorded: significant inhibition”. Further, in data set [15], the “parasitic burden in the spleen, liver or bone marrow” value is reported as “not effective”. Moreover, the “% cell growth A549” value in data set [12] is 132.80 ± 8.98%. In data set [13] (10 μM), the “CYP2C19 interaction / inhibition” value is reported as “interact; also recorded: significant inhibition”.

Values taken from patent US20230365602A1, “COMPOUND FOR USE IN THE TREATMENT OF PROTOZOAL DISEASES AND PROCESS FOR PRODUCTION OF SAID COMPOUND” (QUADREL S.R.L., priority 2020, published 2023).
